Experimental data published in article PMC10366102, “Dose escalation and expansion cohorts in patients with advanced breast cancer in a Phase I study of the CDK7-inhibitor samuraciclib” (Nature Communications, 2023).
Read-outs that look alike come from different tables or passages of the source.

Tested on: patients with advanced/metastatic solid tumors
Settings: for TEAE: Upper respiratory tract infection / TEAE: Urinary tract infection: Module 1A
Source text: In this Phase I study (ClinicalTrials.gov: NCT03363893), male and female patients with locally advanced/metastatic solid tumors received samuraciclib in dose escalation cohorts (at least 3 and up to 6 evaluable patients permitted per dose cohort) to determine the MTD (see Supplementary Information for definition). An additional 6 to 12 male or female patients with breast cancer were enrolled to a paired biopsy cohort to evaluate the pharmacodynamic effects of samuraciclib in tumor tissue, initiated after determining the minimally biologically active dose, defined by a 25-30% reduction in signal for pPolII in lymphocytes after 21 days of dosing or more.
For inclusion in the paired biopsy cohort, only patients with breast cancer with lesions amenable to biopsy were recruited. A full list of inclusion/exclusion criteria is provided in the Supplementary Information.
Patients initially received an oral dose of samuraciclib at Cycle 0, Day 1 for PK evaluation, followed by a 48-hour interval then continuous daily dosing for 21 days (Cycle 1). Dosing continued in 21-day cycles until the patient no longer gained clinical benefit or had intolerable toxicity. At least 3 evaluable patients in a cohort had to complete Cycle 1 before any dose escalation was considered.
As Module 1A was a ‘first time in human’ safety study, initial efficacy was evaluated as a secondary endpoint using the DCR, defined as the percentage of patients with a complete response (CR), PR or stabilization of disease at first on treatment RECIST assessment. To allow for the evaluation of longer-term benefit, Module 1B-1 and Module 2A used the CBR as a secondary endpoint, defined as the percentage of patients with CR or PR or stabilization of disease for at least 24 weeks between enrollment and disease progression or death due to any cause. In addition, the ORR was assessed, defined as the percentage of patients who had at least 1 objective response (CR or PR) prior to any evidence of progression. […] Statistical analyses of PFS using the Kaplan-Meier method were performed on the ITT population - defined as all enrolled patients. AEs were summarized from the Safety Population - defined as all patients who received at least 1 dose of samuraciclib - using the MedDRA system organ class (SOC), preferred term (PT), and graded according to CTCAE V5.0 (Supplementary Information). […]
In the Module 1A dose escalation cohort, patients initially received 1 oral dose of samuraciclib at Cycle 0, Day 1. In the absence of a dose-limiting toxicity (DLT) and following a washout period of at least 48 hours, patients could then enter Cycle 1 and receive samuraciclib daily. In the continued absence of a DLT, each patient could continue to receive samuraciclib daily for a minimum of 21 days (Cycle 1) and could continue to receive additional 21-day cycles of treatment until they were no longer gaining […]
treatment visit was conducted (within 3 days after the last samuraciclib dose). An end of study visit was conducted 28 to 35 days after the last dose of samuraciclib.
At least 3 and up to 6 evaluable patients were required for each dose cohort. At least 3 evaluable patients in a cohort had to complete at least one 21-day cycle of dosing before a Safety Review Committee (SRC), composed of study site investigators and Sponsor medical personnel, could review and initiate the next cohort and dose escalation. Within the initial cohorts there was a staggered interval, with subsequent patients not being dosed until the first patient within each cohort had completed 7 days of samuraciclib monotherapy.
Patient enrolment in the dose escalation cohort proceeded according to a Bayesian model rolling 6 […]
2. If 1 patient experienced a DLT in a group of 3 or more evaluable patients, then the cohort was expanded to include 6 evaluable patients. […]
dose escalation occurred.
3. If at least 2 patients experienced a DLT in a cohort of up to 6 patients, irrespective of the number of […]

**Q.** What does the source list for `CC(C)c1cnn2c(NCc3ccccc3)cc(NC[C@H]3CCNC[C@@H]3O)nc12` [samuraciclib, Samuraciclib]?
**A.** TEAE: Upper respiratory tract infection (120 mg OD N=6): 5 (83.3) participants (%); TEAE: Urinary tract infection (120 mg OD N=6): 0 participants (%); TEAE: Upper respiratory tract infection (240 mg OD N=12): 1 (8.3) participants (%); TEAE: Urinary tract infection (240 mg OD N=12): 1 (8.3) participants (%); TEAE: Upper respiratory tract infection (360 mg OD N=12): 1 (8.3) participants (%); TEAE: Urinary tract infection (360 mg OD N=12): 1 (8.3) participants (%); TEAE: Upper respiratory tract infection (480 mg OD N=6): 0 participants (%); TEAE: Urinary tract infection (480 mg OD N=6): 1 (16.7) participants (%); Lowest dose tested in humans that has demonstrated biological activity (OD): 120 mg; MBAD originally declared by the SRC (OD): 240 mg; Non-tolerated dose (OD in a fasted state): 480 mg; ALT increased; All AEs (both, human, in vivo): 8 (18.2) patients (%); ALT increased; Grade ≥3 (both, human, in vivo): 1 (2.3) patients (%); AST increased; All AEs (both, human, in vivo): 7 (15.9) patients (%); AST increased; Grade ≥3 (both, human, in vivo): 0 patients (%); Abdominal pain upper; All AEs (both, human, in vivo): 4 (9.1) patients (%); Abdominal pain upper; Grade ≥3 (both, human, in vivo): 0 patients (%); Abdominal pain; All AEs (both, human, in vivo): 12 (27.3) patients (%); Abdominal pain; Grade ≥3 (both, human, in vivo): 0 patients (%); Anemia; All AEs (both, human, in vivo): 10 (22.7) patients (%); Anemia; Grade ≥3 (both, human, in vivo): 2 (4.5) patients (%); Any treatment-emergent AE; All AEs (both, human, in vivo): 44 (100.0) patients (%); Any treatment-emergent AE; Grade ≥3 (both, human, in vivo): 21 (47.7) patients (%); Back pain; All AEs (both, human, in vivo): 6 (13.6) patients (%); Back pain; Grade ≥3 (both, human, in vivo): 0 patients (%); Constipation; All AEs (both, human, in vivo): 7 (15.9) patients (%); Constipation; Grade ≥3 (both, human, in vivo): 0 patients (%); Cough; All AEs (both, human, in vivo): 8 (18.2) patients (%); Cough; Grade ≥3 (both, human, in vivo): 0 patients (%); Decreased appetite; All AEs (both, human, in vivo): 9 (20.5) patients (%); Decreased appetite; Grade ≥3 (both, human, in vivo): 1 (2.3) patients (%); Diarrhea; All AEs (both, human, in vivo): 38 (86.4) patients (%); Diarrhea; Grade ≥3 (both, human, in vivo): 2 (4.5) patients (%); Dizziness; All AEs (both, human, in vivo): 2 (4.5) patients (%); Dizziness; Grade ≥3 (both, human, in vivo): 0 patients (%); Drug-related: ALT increased (both, human, in vivo): 3 (6.8) participants (%); Drug-related: AST increased (both, human, in vivo): 4 (9.1) participants (%); Drug-related: Abdominal pain (both, human, in vivo): 8 (18.2) participants (%); Drug-related: Abdominal pain upper (both, human, in vivo): 2 (4.5) participants (%); Drug-related: Anaemia (both, human, in vivo): 3 (6.8) participants (%); Drug-related: Blood creatinine increased (both, human, in vivo): 3 (6.8) participants (%); Drug-related: Decreased appetite (both, human, in vivo): 8 (18.2) participants (%); Drug-related: Dehydration (both, human, in vivo): 2 (4.5) participants (%); Drug-related: Diarrhoea (both, human, in vivo): 36 (81.8) participants (%); Drug-related: Dry mouth (both, human, in vivo): 2 (4.5) participants (%); Drug-related: Dyspepsia (both, human, in vivo): 2 (4.5) participants (%); Drug-related: Dysphagia (both, human, in vivo): 2 (4.5) participants (%); Drug-related: Fatigue (both, human, in vivo): 14 (31.8) participants (%); Drug-related: Gastroesophageal reflux disease (both, human, in vivo): 3 (6.8) participants (%); Drug-related: Mucosal inflammation (both, human, in vivo): 2 (4.5) participants (%); Drug-related: Nausea (both, human, in vivo): 34 (77.3) participants (%); Drug-related: Thrombocytopenia (both, human, in vivo): 3 (6.8) participants (%); Drug-related: Vomiting (both, human, in vivo): 35 (79.5) participants (%); Drug-related: Weight decreased (both, human, in vivo): 4 (9.1) participants (%); Dysgeusia; All AEs (both, human, in vivo): 1 (2.3) patients (%); Dysgeusia; Grade ≥3 (both, human, in vivo): 0 patients (%); Dysphagia; All AEs (both, human, in vivo): 2 (4.5) patients (%); Dysphagia; Grade ≥3 (both, human, in vivo): 0 patients (%); Dyspnea; All AEs (both, human, in vivo): 6 (13.6) patients (%); Dyspnea; Grade ≥3 (both, human, in vivo): 2 (4.5) patients (%); Fatigue; All AEs (both, human, in vivo): 17 (38.6) patients (%); Fatigue; Grade ≥3 (both, human, in vivo): 0 patients (%); Grade ≥3: GGT increased (both, human, in vivo): 2 (4.5) participants (%); Grade ≥3: Malignant neoplasm progression (both, human, in vivo): 2 (4.5) participants (%); Grade ≥3: Pulmonary embolism (both, human, in vivo): 2 (4.5) participants (%); Grade ≥3: Thrombocytopenia (both, human, in vivo): 2 (4.5) participants (%); Headache; All AEs (both, human, in vivo): 4 (9.1) patients (%); Headache; Grade ≥3 (both, human, in vivo): 0 patients (%); Hyperglycemia; All AEs (both, human, in vivo): 1 (2.3) patients (%); Hyperglycemia; Grade ≥3 (both, human, in vivo): 0 patients (%); Hypocalcaemia; All AEs (both, human, in vivo): 2 (4.5) patients (%); Hypocalcaemia; Grade ≥3 (both, human, in vivo): 0 patients (%); Hypokalaemia; All AEs (both, human, in vivo): 0 patients (%); Hypokalaemia; Grade ≥3 (both, human, in vivo): 0 patients (%); Nausea; All AEs (both, human, in vivo): 34 (77.3) patients (%); Nausea; Grade ≥3 (both, human, in vivo): 0 patients (%); Participants with any drug-related TEAE (both, human, in vivo): 44 (100.0) participants (%); Rash; All AEs (both, human, in vivo): 1 (2.3) patients (%); Rash; Grade ≥3 (both, human, in vivo): 0 patients (%); Stomatitis; All AEs (both, human, in vivo): 1 (2.3) patients (%); Stomatitis; Grade ≥3 (both, human, in vivo): 0 patients (%); Taste disorder; All AEs (both, human, in vivo): 0 patients (%); Taste disorder; Grade ≥3 (both, human, in vivo): 0 patients (%); Thrombocytopenia reported as Grade ≥3 (both, human, in vivo): 2 patients; Upper respiratory tract infection; All AEs (both, human, in vivo): 8 (18.2) patients (%); Upper respiratory tract infection; Grade ≥3 (both, human, in vivo): 0 patients (%); Urinary tract infection; All AEs (both, human, in vivo): 5 (11.4) patients (%); Urinary tract infection; Grade ≥3 (both, human, in vivo): 0 patients (%); Vomiting; All AEs (both, human, in vivo): 36 (81.8) patients (%); Vomiting; Grade ≥3 (both, human, in vivo): 1 (2.3) patients (%); Weight decreased; All AEs (both, human, in vivo): 4 (9.1) patients (%); Weight decreased; Grade ≥3 (both, human, in vivo): 1 (2.3) patients (%); DLT: Decreased appetite (both, human, in vivo, 21 days): 1 (3.0) patients (%); DLT: Diarrhoea (both, human, in vivo, 21 days): 1 (3.0) patients (%); DLT: Gastroesophageal reflux disease (both, human, in vivo, 21 days): 1 (3.0) patients (%); DLT: Nausea (both, human, in vivo, 21 days): 1 (3.0) patients (%); DLT: Oesophagitis (both, human, in vivo, 21 days): 1 (3.0) patients (%); DLT: Stomatitis (both, human, in vivo, 21 days): 1 (3.0) patients (%); DLT: Thrombocytopenia (both, human, in vivo, 21 days): 1 (3.0) patients (%); DLT: Vomiting (both, human, in vivo, 21 days): 2 (6.1) patients (%); DLT: Weight decreased (both, human, in vivo, 21 days): 1 (3.0) patients (%); Patients with a dose-limiting toxicity (both, human, in vivo, 21 days): 3/6; Patients with any DLT (both, human, in vivo, 21 days): 6 (18.2) patients (%); Drug-related: Oral pain (both, human, in vivo, po): 2 (4.5) participants (%); Drop in platelet counts (during therapy, over the first 15 days then plateau, 240 mg OD and 360 mg OD): ~20%; Maximum tolerated dose (MTD) (once daily, monotherapy): 360 mg
